Test results reported in patent publication US7816511B2, “Remedies for heart failure” (Asubio Pharma Co., Ltd., priority 2000, dated 2010).

What was measured:
OSF-2 mRNA = assay: Expression analysis of OSF-2 mRNA using MC3T3-E1 cells (real-time PCR); assay type: cell-based, murine; details: 30 μM, 24 hours
OSF-2 promoter = assay: Reporter assay using COS-1 cells with human OSF-2 reporter plasmid pGL3-hOSFgE (luciferase); assay type: cell-based; details: 24 hours after compound addition, pGL3-control (SV40 promoter) as control
Source text: A region extending from about 2 kb upstream of the initiation codon to immediately before the initiation codon was amplified by PCR using human OSF-2 gene #2 obtained in Example 10-1 as a template and primers (12) 5′-[…]-3′ (SEQ ID NO: 25) and (13) 5′-[…]-3′ (SEQ ID NO: 26). Primer (13) was designed to insert a restriction enzyme XhoI recognition site into the 5′ end, and this amplified fragment was digested with restriction enzymes SpeI and XhoI to give a fragment of about 2 kb, which was then ligated to a vector fragment of pGL3-enhancer (Promega) digested with restriction enzymes NheI and XhoI located upstream of the luciferase gene using a ligation kit (TAKARA SHUZO CO., LTD.) to give pGL3-hOSFgE. The nucleotide sequence of the insert was determined according to the method of Example 1-5 to confirm that it was identical with the nucleotide sequence determined in Example 10-1.
COS-1 cells were plated on a 96-well plate at a density of 3×10^4 cells/well and the plate was incubated at 37° C. for 16-24 hours and then transiently transfected with OSF-2 reporter plasmid pGL3-hOSFgE shown in Example 10 using LipofectAMINE 2000 reagent (GIBCO), and after incubation for 24 hours at 37° C., the medium was replaced. […] Luciferase activity was assayed according to the protocol of a luciferase assay system (Promega) and detected with 1420 multilabel counter (Wallac). […]

Dahl-S rats = assay: Survival of Dahl-S heart failure model rats after antisense transfection into the heart; assay type: in vivo, rat; details: 30 weeks post transfection, Dahl-S rats on 8% salt diet
Procedure: HVJ-liposomes were prepared as described in Example 6.2 by adding 50 μl of HMG-1,-2 mixture (1 mg/ml, Wako Pure Chemical Industries) to 1.4 mg of a solution of the antisense nucleotides selected in Example 7 dissolved in BSS buffer. Sense nucleotides were also prepared in the same manner.
The HVJ-liposome/DNA solution was injected into the left ventricle of the heart (apical and lateral sites) of 13-weeks old Dahl-S rats (DIS/Eis, Eisai, male) raised on an 8% salt diet from the age of 8 weeks in an amount of 75 μl each at 4 sites (a total volume of 300 μl) using a 30-gauge needle (antisense group: 13 rats, sense group: 13 rats).

Sprague-Dawley rats = assay: Echocardiography 3 weeks after co-transfection of rOSF-2 plasmid and antisense/sense/scramble nucleotides into the rat heart; assay type: in vivo; details: 3 weeks post transfection; for EDV: end-diastolic volume / ESV: end-systolic volume / FS: fractional shortening of the inner diameter of the left ventricle / IVPWD / IVSTD: thickness of the end-diastolic interventricular septum / LVIDD: inner diameter of the end-diastolic left ventricle / LVIDS: inner diameter of the end-systolic left ventricle / LVPWS: thickness of the posterior wall of the end-systolic left ventricle / TVSTS: echocardiography, nucleotides co-injected with rOSF-2 plasmid
Procedure: HVJ-liposomes were prepared as described in Example 6 by adding 50 μl of HMG-1,-2 mixture (1 mg/ml, Wako Pure Chemical Industries) to 200 μg of the plasmid solution prepared in Example 6.1 and 1.4 mg of the antisense nucleotide solution selected in Example 7. Sense and scramble nucleotide sequences were also prepared in the same manner.
The HVJ-liposome/DNA solution was injected into the left ventricle of the heart (apical and lateral sites) of 13-weeks old Sprague-Dawley rats (male) in an amount of 100 μl each at 3 sites (a total volume of 300 μl) using a 30-gauge needle (rOSF-2/antisense group, rOSF-2/sense group and rOSF-2/scramble group). Similarly, pcDNA4/rOSF-2 was injected as a positive control group and pcDNA4/His-Myc vector was injected as a negative control group.
After anesthesia with ketamine (50 mg/ml) and xylazine (10 mg/ml) at 3 weeks post transfection, echocardiography was performed using Core Vision Pro SSA 350A (probe: 7 MHz, Toshiba).

[1] = test system: Myc-His-rOSF-2 fused protein; assay: Selection of antisense nucleotide sequences: ELISA of Myc-His-rOSF-2 fused protein in transfected COS-1 cells; assay type: cell-based, rat
Source text: Five antisense nucleotide sequences shown as SEQ ID NOs: 12-16 were designed by selecting regions containing an initiation codon AUG but not containing three continuous guanines (triplet G) and incapable of forming a hairpin structure or self-annealing and synthesized by an outer contractor. All the antisense nucleotide sequences are phosphorothioate type.
The Myc-His-rOSF-2 fused protein expression vector pcDNA4/Myc-His/rOSF-2 described in Example 5 was introduced into COS-1 cells, and the antisense nucleotide sequences prepared in 1 above were introduced to screen antisense nucleotide sequences inhibiting the expression of Myc-His-rOSF 2 fused protein. The expression level of Myc-His-rOSF-2 fused protein was assayed by ELISA (Enzyme-Linked Immunosorbent Assay) using a Myc-specific monoclonal antibody (Invitrogen). Specifically, COS-1 cells were plated on a 96-well plate at a density of 2×10^4 cells/well. […]
The culture supernatant was immobilized to an EIA/RIA plate (Costar) by incubating 50 μl thereof at 37° C. for 1-2 hours, and washed twice with 200 μl of Dulbecco's phosphate-buffered saline containing 0.1% Tween (PBST). […] After incubation with 50 μl of TMB (3,3′,5,5′-tetramethylbenzidine) reagent (KPL) at room temperature for 30 minutes, the reaction was stopped by adding 50 μl of 0.1 N sulfuric acid and the absorbance at 450 nm was measured with a microplate reader. […]

Nc1nc(Cl)nc2c1ncn2[C@@H]1O[C@H](COP(=O)([O-])OP(=O)([O-])OP(=O)([O-])[O-])[C@@H](O)[C@H]1O.[Na+].[Na+].[Na+].[Na+] [2-chloroadenosine 5′-triphosphate tetrasodium]
expression of OSF-2 mRNA (standardized by GAPDH mRNA) (OSF-2 mRNA): inhibited the expression of OSF-2 mRNA
luciferase activity (OSF-2 promoter): inhibit luciferase activity specifically to OSF-2 promoter

Cc1ccccc1CNc1ncnc2c1ncn2[C@@H]1O[C@H](CO)[C@@H](O)[C@H]1O [Metrifudil, N-[(2-methylphenyl)methyl]-adenosine]
expression of OSF-2 mRNA (standardized by GAPDH mRNA) (OSF-2 mRNA): inhibited the expression of OSF-2 mRNA
luciferase activity (OSF-2 promoter): inhibit luciferase activity specifically to OSF-2 promoter

SEQ ID NO: 12: phosphorothioate antisense nucleotide sequence containing the initiation codon region of rat OSF-2; the one selected in Example 7 (AGGAACCATCTTCAGCCCTG; all phosphorothioate, sugars by position and methylation of C not given here)
survival rate (Dahl-S rats): 100%
cardiac dilatation (LVIDD, LVIDS vs. positive control, sense and scramble groups) (Sprague-Dawley rats): inhibited cardiac dilatation
EDV: end-diastolic volume (Sprague-Dawley rats): 210.0 ± 6.8 µL
ESV: end-systolic volume (Sprague-Dawley rats): 43.3 ± 5.1 µL
FS: fractional shortening of the inner diameter of the left ventricle (Sprague-Dawley rats): 49.5 ± 1.7%
IVPWD (Sprague-Dawley rats): 2.20 ± 0.13 mm
IVSTD: thickness of the end-diastolic interventricular septum (Sprague-Dawley rats): 1.68 ± 0.12 mm
LVIDD: inner diameter of the end-diastolic left ventricle (Sprague-Dawley rats): 6.42 ± 0.09 mm
LVIDS: inner diameter of the end-systolic left ventricle (Sprague-Dawley rats): 3.25 ± 0.15 mm
LVPWS: thickness of the posterior wall of the end-systolic left ventricle (Sprague-Dawley rats): 2.80 ± 0.17 mm
TVSTS (Sprague-Dawley rats): 3.07 ± 0.16 mm
inhibitory activity against OSF-2 protein production ([1]; final concentration 10 nM, FIG. 3): stronger inhibitory activity against OSF-2 protein production than the sense and scramble nucleotide sequences
inhibitory activity against OSF-2 protein production ([1]; final concentration 100 nM, 3 days, FIG. 2): inhibited the expression the most strongly

scramble: scramble nucleotide sequence with the 5′, 3′ direction reversed to SEQ ID NO: 12 (GTCCCGACTTCTACCAAGGA; listed as DNA, chemistry not given here)
EDV: end-diastolic volume (Sprague-Dawley rats): 307.6 ± 10.4 µL
ESV: end-systolic volume (Sprague-Dawley rats): 73.4 ± 7.5 µL
FS: fractional shortening of the inner diameter of the left ventricle (Sprague-Dawley rats): 46.7 ± 1.6%
IVPWD (Sprague-Dawley rats): 1.68 ± 0.07 mm
IVSTD: thickness of the end-diastolic interventricular septum (Sprague-Dawley rats): 1.26 ± 0.12 mm
LVIDD: inner diameter of the end-diastolic left ventricle (Sprague-Dawley rats): 7.60 ± 11 mm
LVIDS: inner diameter of the end-systolic left ventricle (Sprague-Dawley rats): 4.06 ± 0.18 mm
LVPWS: thickness of the posterior wall of the end-systolic left ventricle (Sprague-Dawley rats): 2.66 ± 0.07 mm
TVSTS (Sprague-Dawley rats): 2.60 ± 0.15 mm

sense: sense nucleotide sequence that is a sense strand corresponding to SEQ ID NO: 12 (CAGGGCTGAAGATGGTTCCT; listed as DNA, chemistry not given here)
survival rate (Dahl-S rats): 61.5%
EDV: end-diastolic volume (Sprague-Dawley rats): 339.2 ± 17.9 µL
ESV: end-systolic volume (Sprague-Dawley rats): 82.4 ± 10.2 µL
FS: fractional shortening of the inner diameter of the left ventricle (Sprague-Dawley rats): 46.7 ± 1.6%
IVPWD (Sprague-Dawley rats): 1.46 ± 0.11 mm
IVSTD: thickness of the end-diastolic interventricular septum (Sprague-Dawley rats): 1.26 ± 0.07 mm
LVIDD: inner diameter of the end-diastolic left ventricle (Sprague-Dawley rats): 7.93 ± 0.18 mm
LVIDS: inner diameter of the end-systolic left ventricle (Sprague-Dawley rats): 4.24 ± 0.22 mm
LVPWS: thickness of the posterior wall of the end-systolic left ventricle (Sprague-Dawley rats): 2.30 ± 0.15 mm
TVSTS (Sprague-Dawley rats): 2.50 ± 0.07 mm
